Experimental data taken from ChEMBL document CHEMBL2380239, “Novel ROS-activated agents utilize a tethered amine to selectively target acute myeloid leukemia” (Bioorg Med Chem Lett, 2013).
pIC50: −log10 of the molar value.

Tested on: HeLa
Test: Cytotoxicity against human HeLa cells after 48 hrs by MTT assay
Format: functional, cell-based

Structure (SMILES)	pIC50
CN(CCCBr)c1ccccc1	< 3.90
Oc1ccc(OCCNc2ccccc2)cc1	4.52
CN(CCOc1ccc(O)cc1)c1ccccc1	4.74
CCN(CCOc1ccc(O)cc1)c1ccccc1	4.64
